# Measured values as given in PMC7112121 (Bioorganic Chemistry, 2019).
# Where two headings read alike, the source gives them in different places.
# Key:
# HSV-2 = test: Antiviral CPE reduction assay, HSV-2 in HEL cells; format: cell-based, Herpes simplex virus-2; settings: for EC50: Human alphaherpesvirus 2, HEL, read-out: Antiviral EC50 HSV-2; for Antiviral EC50 HSV-2: HEL cells, CPE by microscopy, mean of two experiments
# Sindbis virus = test: Antiviral CPE reduction assay, Sindbis virus in VERO cells; format: cell-based; settings: for EC50: Sindbis virus, Vero, read-out: Antiviral EC50 Sindbis virus; for Antiviral EC50 Sindbis virus: VERO cells, CPE by microscopy, mean of two experiments
# ACV^r-HSV-1 = test: Antiviral CPE reduction assay, ACVr-HSV-1 in HEL cells; format: cell-based; settings: for EC50: Human alphaherpesvirus 1, HEL, read-out: Antiviral EC50 ACV^r-HSV-1; for Antiviral EC50 ACV^r-HSV-1: HEL cells, CPE by microscopy, mean of two experiments
# VERO cells = settings: minimum cytotoxic concentration
# Vaccinia virus = test: microbe, parasite or virus in culture; format: cell-based; settings: for EC50: Orthopoxvirus vaccinia, HEL, read-out: Antiviral EC50 Vaccinia virus
# Feline coronavirus = test: microbe, parasite or virus in culture; settings: Alphacoronavirus 1, CRFK, read-out: Antiviral EC50 Feline coronavirus
# Punto Toro virus = test: Antiviral CPE reduction assay, Punto Toro virus in VERO cells; format: cell-based, Punta toro virus; settings: for EC50: Punta Toro virus, Vero, read-out: Antiviral EC50 Punto Toro virus; for Antiviral EC50 Punto Toro virus: VERO cells, CPE by microscopy, mean of two experiments
# HSV-1 = test: Antiviral CPE reduction assay, HSV-1 in HEL cells; format: cell-based, Herpes simplex virus-1; settings: for EC50: Human alphaherpesvirus 1, HEL, read-out: Antiviral EC50 HSV-1; for Antiviral EC50 HSV-1: HEL cells, CPE by microscopy, mean of two experiments
# Coxsackie B4 virus = test: Antiviral CPE reduction assay, Coxsackie B4 virus in VERO cells; format: cell-based; settings: for EC50: Enterovirus B, B4, Vero, read-out: Antiviral EC50 Coxsackie B4 virus; for Antiviral EC50 Coxsackie B4 virus: VERO cells, CPE by microscopy, mean of two experiments
# Parainfluenza-3 virus = test: Antiviral CPE reduction assay, Parainfluenza-3 virus in VERO cells; format: cell-based; settings: for EC50: Vero, read-out: Antiviral EC50 Parainfluenza-3 virus; for Antiviral EC50 Parainfluenza-3 virus: VERO cells, CPE by microscopy, mean of two experiments
# [1] = tested on: human embryonic lung (HEL) fibroblast cells; settings: minimum cytotoxic concentration
# Reovirus-1 = test: Antiviral CPE reduction assay, Reovirus-1 in VERO cells; format: cell-based; settings: for EC50: Vero, read-out: Antiviral EC50 Reovirus-1; for Antiviral EC50 Reovirus-1: VERO cells, CPE by microscopy, mean of two experiments
# Feline herpesvirus = test: Antiviral CPE reduction assay, Feline herpesvirus in CRFK cells; format: cell-based; settings: Felid alphaherpesvirus 1, CRFK, read-out: Antiviral EC50 Feline herpesvirus
# CRFK feline kidney cells = settings: MTS cell viability assay
# [2] = tested on: Vesicular stomatitis virus; format: cell-based
# [3] = tested on: Mycobacterium tuberculosis H37Rv
# DNA virus = test: Anti-DNA virus activity in HEL cells; format: cell-based
# [4] = microscopic inspection of cell morphology
Compound,EC50 (HSV-2),EC50 (Sindbis virus),EC50 (ACV^r-HSV-1),Cytotoxicity MCC (VERO cells; [4]),EC50 (Vaccinia virus),EC50 (Feline coronavirus),EC50 (Punto Toro virus),EC50 (HSV-1),EC50 (Coxsackie B4 virus),EC50 (Parainfluenza-3 virus),"Cytotoxicity MCC [1, 4]",EC50 (Reovirus-1),EC50 (Feline herpesvirus),Cytotoxicity MCC ([1]; reference in µM),further results
"CC1SC2(CCCC2)N(NC(=O)Cc2csc3nc(-c4ccc(Br)cc4)cn23)C1=O (centres unmarked) [Compound 6a, 2-[6-(4-Bromophenyl)imidazo[2,1-b]thiazole-3-yl]-N-(2-methyl-3-oxo-1-thia-4-azaspiro[4.4]non-4-yl)acetamide]",> 100 µg/mL,> 100 µg/mL,> 100 µg/mL,100 µg/mL,> 100 µg/mL,> 100 µg/mL,> 100 µg/mL,> 100 µg/mL,> 100 µg/mL,> 100 µg/mL,≥20 µg/mL,> 100 µg/mL,> 100 µg/mL,–,–
"Nc1nc(O)c2ncn(COC(CO)CO)c2n1 [Ganciclovir, reference compound]",0.03 µM,–,60 µM,–,> 100 µM,> 100 µM,–,0.025 µM,–,–,–,–,1.9 µM,>100 µM,–
"CC1SC2(CCCCC2)N(NC(=O)Cc2csc3nc(-c4ccc(Br)cc4)cn23)C1=O (centres unmarked) [Compound 6b, 2-[6-(4-Bromophenyl)imizado[2,1-b]thiazole-3-yl]-N-(2-methyl-3-oxo-1-thia-4-azaspiro[4], [5]dec-4-yl)acetamide]",–,–,–,100 µg/mL,–,–,–,–,–,–,20 µg/mL,–,–,–,Antiviral EC50 HSV-2 (HSV-2): >100 µg/mL; Antiviral EC50 Sindbis virus (Sindbis virus): >100 µg/mL; Antiviral EC50 ACV^r-HSV-1 (ACV^r-HSV-1): >100 µg/mL; Antiviral EC50 Vaccinia virus (Vaccinia virus): >100 µg/mL; Antiviral EC50 Punto Toro virus (Punto Toro virus): >100 µg/mL; Antiviral EC50 HSV-1 (HSV-1): >100 µg/mL; Cytotoxicity CC50 (CRFK feline kidney cells): 9.2 µg/mL; Antiviral EC50 Vesicular stomatitis virus [2]: >100 µg/mL; Antiviral EC50 Coxsackie B4 virus (Coxsackie B4 virus): >100 µg/mL; Antiviral EC50 Parainfluenza-3 virus (Parainfluenza-3 virus): >100 µg/mL; Antiviral EC50 Reovirus-1 (Reovirus-1): >100 µg/mL
"O=C(Cc1csc2nc(-c3ccc(Br)cc3)cn12)NN1C(=O)CSC12CCCC2 [Compound 5a, 2-[6-(4-Bromophenyl)imidazo[2,1-b]thiazole-3-yl]-N-(3-oxo-1-thia-4-azaspiro[4.4]non-4-yl)acetamide]",> 100 µg/mL,> 100 µg/mL,> 100 µg/mL,≥20 µg/mL,> 100 µg/mL,> 100 µg/mL,> 100 µg/mL,> 100 µg/mL,> 100 µg/mL,> 100 µg/mL,100 µg/mL,> 100 µg/mL,> 100 µg/mL,–,"H37Rv Finding MIC [3]: 8.453 µg/mL; H37Rv Finding Activity ([3]; M. tuberculosis H37Rv, MABA in BACTEC 12B medium): Active"
"NC(=O)c1ncn([C@@H]2O[C@H](CO)[C@@H](O)[C@H]2O)n1 [Ribavirin, reference compound]",–,> 250 µM,–,–,–,–,38 µM,–,> 250 µM,50 µM,–,> 250 µM,–,–,Cytotoxicity MCC (VERO cells; reference in µM): >250 µM
"Nc1ccn(C[C@@H](CO)OCP(=O)(O)O)c(=O)n1 [Cidofovir, reference compound]",–,–,–,–,–,–,–,–,–,–,–,–,–,>250 µM,–
"O=C(Cc1csc2nc(-c3ccc(Br)cc3)cn12)NN=C1CCC(c2ccc(O)cc2)CC1 (centres unmarked) [Compound 4d, 6-(4-Bromophenyl)–N^2-(4-hydroxyphenylcyclohexylidene)imidazo[2,1-b]thiazole-3-acetohydrazide]",–,–,–,>100 µg/mL,–,–,–,–,–,–,>100 µg/mL,–,–,–,"Antiviral EC50 HSV-2 (HSV-2): 45 µg/mL; Antiviral EC50 Sindbis virus (Sindbis virus): >100 µg/mL; Antiviral EC50 ACV^r-HSV-1 (ACV^r-HSV-1): 45 µg/mL; Antiviral EC50 Vaccinia virus (Vaccinia virus): 45 µg/mL; antiviral EC50 values, anti-DNA virus activity (DNA virus): about 45 µg/mL; Antiviral EC50 Punto Toro virus (Punto Toro virus): >100 µg/mL; Antiviral EC50 HSV-1 (HSV-1): 45 µg/mL; Cytotoxicity CC50 (CRFK feline kidney cells): 68 µg/mL; Antiviral EC50 Vesicular stomatitis virus [2]: >100 µg/mL; Antiviral EC50 Coxsackie B4 virus (Coxsackie B4 virus): >100 µg/mL; Antiviral EC50 Parainfluenza-3 virus (Parainfluenza-3 virus): >100 µg/mL; Antiviral EC50 Reovirus-1 (Reovirus-1): >100 µg/mL"
"O=c1[nH]c(=O)n([C@H]2C[C@H](O)[C@@H](CO)O2)cc1/C=C/Br [Brivudine, reference compound]",50 µM,–,–,–,–,–,–,–,–,–,–,–,–,>250 µM,–
